One assay has as its target T1, TTK (Homo sapiens, UniProt P33981).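 Note: compound tested at 10 µM with 2 µM protein.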
T1 construct: purchased in-house DSF panel (SGC Frankfurt)
T1 sequence (P33981 519-808): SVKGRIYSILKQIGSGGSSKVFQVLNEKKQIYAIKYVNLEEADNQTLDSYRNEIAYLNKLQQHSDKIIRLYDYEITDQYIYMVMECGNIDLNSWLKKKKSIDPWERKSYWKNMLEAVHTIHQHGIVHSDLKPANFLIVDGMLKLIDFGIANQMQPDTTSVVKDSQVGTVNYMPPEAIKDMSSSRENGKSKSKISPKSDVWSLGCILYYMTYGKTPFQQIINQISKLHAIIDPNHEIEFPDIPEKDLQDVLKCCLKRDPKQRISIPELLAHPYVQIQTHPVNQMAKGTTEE
As to the kind of experiment: DSF. The format is binding.

A further assay deals with T2, CDK3/Cyclin E1 (Homo sapiens, UniProt Q00526).
T2 construct: Full-length kinases were obtained as plasmids cloned in frame with a terminal NanoLuc-fusion; CS1810C171 (CCNE1); host or cells: HEK293T
T2 sequence (Q00526 whole entry, the tested form may be a part): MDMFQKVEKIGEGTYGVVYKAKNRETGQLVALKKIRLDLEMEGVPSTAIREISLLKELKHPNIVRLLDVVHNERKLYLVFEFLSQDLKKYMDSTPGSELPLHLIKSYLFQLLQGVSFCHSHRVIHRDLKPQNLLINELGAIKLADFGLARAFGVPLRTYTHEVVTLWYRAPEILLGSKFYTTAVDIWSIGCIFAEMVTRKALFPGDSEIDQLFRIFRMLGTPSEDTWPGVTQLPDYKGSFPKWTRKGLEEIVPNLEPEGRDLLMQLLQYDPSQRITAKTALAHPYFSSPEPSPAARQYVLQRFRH
T2 sequence (P24864 whole entry partner, the tested form may be a part): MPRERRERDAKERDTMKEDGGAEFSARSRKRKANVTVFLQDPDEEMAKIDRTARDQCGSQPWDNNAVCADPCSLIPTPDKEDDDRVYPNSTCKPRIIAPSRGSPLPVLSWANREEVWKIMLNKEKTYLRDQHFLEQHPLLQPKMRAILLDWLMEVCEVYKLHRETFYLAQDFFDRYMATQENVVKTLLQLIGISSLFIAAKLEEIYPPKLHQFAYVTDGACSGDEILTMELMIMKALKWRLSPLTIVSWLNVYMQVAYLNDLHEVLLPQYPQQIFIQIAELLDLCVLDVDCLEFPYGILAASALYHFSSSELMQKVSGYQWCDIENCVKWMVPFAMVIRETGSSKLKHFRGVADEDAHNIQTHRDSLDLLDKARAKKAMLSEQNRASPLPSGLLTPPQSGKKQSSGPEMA
In words: NanoBRET. As to conditions: read-out: NanoBRET EC50 ± SEM CDK3/Cyclin E1. The format is cell-based. The procedure:
(§1) The assay was performed as described previously. In brief: Full-length kinases were obtained as plasmids cloned in frame with a terminal NanoLuc-fusion (Promega, Madison, WI, USA), as specified in table (Table S6). Plasmids were transfected into HEK293T cells using FuGENE HD (Promega, E2312) and proteins were allowed to express for 20h. Serially diluted inhibitor and NanoBRET Kinase Tracer (Promega) at a concentration determined previously as the KD,app (Table S5) were pipetted into white 384-well plates (Greiner 781207) using an Echo acoustic dispenser (Labcyte, San Jose, CA, USA). The corresponding protein-transfected cells were added and reseeded at a density of 2.5 × 10^5 cells/mL after trypsinization and resuspending in Opti-MEM without phenol red (Life Technologies, Carlsbad, CA, USA). The system was allowed to equilibrate for 2 h at 37 °C/5% CO2 prior to BRET measurements. To measure BRET, NanoBRET NanoGlo Substrate + Extracellular NanoLuc Inhibitor (Promega, N2540) was added as per the manufacturer’s protocol, and filtered luminescence was measured on a PHERAstar plate reader (BMG Labtech, Ortenberg, Germany) equipped with a luminescence filter pair (450 nm BP filter (donor) and 610 nm LP filter (acceptor)). Competitive displacement data were then graphed using GraphPad Prism 9 software using a normalized 3-parameter curve fit with the following equation: Y = 100/(1 + 10^(X–LogEC50)).
A general note: Bioluminescence resonance energy transfer reports proximity on the nanometre scale.

The target in a further assay is T3, CDK7 (Homo sapiens, UniProt P50613).
T3 construct: Full-length kinases were obtained as plasmids cloned in frame with a terminal NanoLuc-fusion; host or cells: HEK293T
T3 sequence (P50613 whole entry, the tested form may be a part): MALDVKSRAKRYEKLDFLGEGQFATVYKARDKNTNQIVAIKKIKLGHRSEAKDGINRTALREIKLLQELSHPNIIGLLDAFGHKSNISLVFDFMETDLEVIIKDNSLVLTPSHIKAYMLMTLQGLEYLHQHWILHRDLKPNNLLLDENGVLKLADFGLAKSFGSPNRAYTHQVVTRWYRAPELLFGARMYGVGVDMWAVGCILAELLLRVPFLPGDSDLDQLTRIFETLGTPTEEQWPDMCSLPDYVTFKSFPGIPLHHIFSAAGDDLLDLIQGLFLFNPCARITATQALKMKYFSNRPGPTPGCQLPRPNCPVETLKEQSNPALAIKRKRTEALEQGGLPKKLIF
In words: NanoBRET. The format is cell-based. As to conditions: read-out: NanoBRET EC50 ± SEM CDK7. The procedure:
as §1

The target in another assay is CDK20/Cyclin H (Homo sapiens, UniProt Q8IZL9). In words: NanoBRET. The format is cell-based. Particulars: read-out: NanoBRET EC50 ± SEM CDK20/Cyclin H. Here is the method:
as §1

Another assay concerns the target T4, CDK2/Cyclin A2 (Homo sapiens, UniProt P24941).
T4 construct: Full-length kinases were obtained as plasmids cloned in frame with a terminal NanoLuc-fusion; CCNA2: 'Promega', no number; host or cells: HEK293T
In words: NanoBRET. The format is cell-based. As to conditions: read-out: NanoBRET EC50 ± SEM CDK2/Cyclin A2. Here is the method:
as §1

Another assay has as its target T5, CDK2/Cyclin A1 (Homo sapiens, UniProt P24941).
T5 construct: Full-length kinases were obtained as plasmids cloned in frame with a terminal NanoLuc-fusion; CS1810C172 (CCNA1); host or cells: HEK293T
As to the kind of experiment: NanoBRET. The format is cell-based. As to conditions: read-out: NanoBRET EC50 ± SEM CDK2/Cyclin A1. Here is the method:
as §1

For a further assay, the target named is T6, CDK9/Cyclin K (Homo sapiens, UniProt P50750).
T6 construct: Full-length kinases were obtained as plasmids cloned in frame with a terminal NanoLuc-fusion; CS1810C93 (CCNK); host or cells: HEK293T
As to the kind of experiment: NanoBRET. The format is cell-based. Particulars: read-out: NanoBRET EC50 ± SEM CDK9/Cyclin K. Here is the method:
as §1

The next assay has as its target T7, CDK14/Cyclin Y (Homo sapiens, UniProt O94921).
T7 construct: Full-length kinases were obtained as plasmids cloned in frame with a terminal NanoLuc-fusion; CS1810C178 (CCNY); host or cells: HEK293T
As to the kind of experiment: NanoBRET. The format is cell-based. As to conditions: read-out: NanoBRET EC50 ± SEM CDK14/Cyclin Y. Here is the method: as §1

The next assay concerns the target T8, CDK1/Cyclin E1 (Homo sapiens, UniProt P06493).
T8 construct: Full-length kinases were obtained as plasmids cloned in frame with a terminal NanoLuc-fusion; CS1810C171 (CCNE1); host or cells: HEK293T
As to the kind of experiment: NanoBRET. The format is cell-based. Particulars: read-out: NanoBRET EC50 ± SEM CDK1/Cyclin E1. Here is the method:
as §1

The target in the next assay is T9, CDK2/Cyclin D1 (Homo sapiens, UniProt P24941).
T9 construct: Full-length kinases were obtained as plasmids cloned in frame with a terminal NanoLuc-fusion; CS1810C118 (CCND1); host or cells: HEK293T
As to the kind of experiment: NanoBRET. The format is cell-based. As to conditions: read-out: NanoBRET EC50 ± SEM CDK2/Cyclin D1. The procedure: as §1

For another assay, the target named is CDK10/Cyclin L2 (Homo sapiens, UniProt Q15131). As to the kind of experiment: NanoBRET. The format is cell-based. Particulars: read-out: NanoBRET EC50 ± SEM CDK10/Cyclin L2. The procedure: as §1
CDK10/Cyclin L2, sequence (Q15131 whole entry): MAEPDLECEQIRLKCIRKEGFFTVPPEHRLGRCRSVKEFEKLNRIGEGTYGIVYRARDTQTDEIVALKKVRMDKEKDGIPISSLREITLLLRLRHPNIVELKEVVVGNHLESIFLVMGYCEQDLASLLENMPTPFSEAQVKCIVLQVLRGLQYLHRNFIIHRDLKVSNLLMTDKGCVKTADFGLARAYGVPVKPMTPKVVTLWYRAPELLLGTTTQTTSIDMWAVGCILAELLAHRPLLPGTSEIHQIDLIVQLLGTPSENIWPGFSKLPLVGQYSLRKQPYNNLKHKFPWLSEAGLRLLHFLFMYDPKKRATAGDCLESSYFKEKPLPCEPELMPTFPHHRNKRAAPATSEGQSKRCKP
The target of the next assay is T10, CDK13/Cyclin K (Homo sapiens, UniProt Q14004).
T10 construct: Full-length kinases were obtained as plasmids cloned in frame with a terminal NanoLuc-fusion; CS1810C93 (CCNK); host or cells: HEK293T
T10 sequence (Q14004 whole entry, the tested form may be a part): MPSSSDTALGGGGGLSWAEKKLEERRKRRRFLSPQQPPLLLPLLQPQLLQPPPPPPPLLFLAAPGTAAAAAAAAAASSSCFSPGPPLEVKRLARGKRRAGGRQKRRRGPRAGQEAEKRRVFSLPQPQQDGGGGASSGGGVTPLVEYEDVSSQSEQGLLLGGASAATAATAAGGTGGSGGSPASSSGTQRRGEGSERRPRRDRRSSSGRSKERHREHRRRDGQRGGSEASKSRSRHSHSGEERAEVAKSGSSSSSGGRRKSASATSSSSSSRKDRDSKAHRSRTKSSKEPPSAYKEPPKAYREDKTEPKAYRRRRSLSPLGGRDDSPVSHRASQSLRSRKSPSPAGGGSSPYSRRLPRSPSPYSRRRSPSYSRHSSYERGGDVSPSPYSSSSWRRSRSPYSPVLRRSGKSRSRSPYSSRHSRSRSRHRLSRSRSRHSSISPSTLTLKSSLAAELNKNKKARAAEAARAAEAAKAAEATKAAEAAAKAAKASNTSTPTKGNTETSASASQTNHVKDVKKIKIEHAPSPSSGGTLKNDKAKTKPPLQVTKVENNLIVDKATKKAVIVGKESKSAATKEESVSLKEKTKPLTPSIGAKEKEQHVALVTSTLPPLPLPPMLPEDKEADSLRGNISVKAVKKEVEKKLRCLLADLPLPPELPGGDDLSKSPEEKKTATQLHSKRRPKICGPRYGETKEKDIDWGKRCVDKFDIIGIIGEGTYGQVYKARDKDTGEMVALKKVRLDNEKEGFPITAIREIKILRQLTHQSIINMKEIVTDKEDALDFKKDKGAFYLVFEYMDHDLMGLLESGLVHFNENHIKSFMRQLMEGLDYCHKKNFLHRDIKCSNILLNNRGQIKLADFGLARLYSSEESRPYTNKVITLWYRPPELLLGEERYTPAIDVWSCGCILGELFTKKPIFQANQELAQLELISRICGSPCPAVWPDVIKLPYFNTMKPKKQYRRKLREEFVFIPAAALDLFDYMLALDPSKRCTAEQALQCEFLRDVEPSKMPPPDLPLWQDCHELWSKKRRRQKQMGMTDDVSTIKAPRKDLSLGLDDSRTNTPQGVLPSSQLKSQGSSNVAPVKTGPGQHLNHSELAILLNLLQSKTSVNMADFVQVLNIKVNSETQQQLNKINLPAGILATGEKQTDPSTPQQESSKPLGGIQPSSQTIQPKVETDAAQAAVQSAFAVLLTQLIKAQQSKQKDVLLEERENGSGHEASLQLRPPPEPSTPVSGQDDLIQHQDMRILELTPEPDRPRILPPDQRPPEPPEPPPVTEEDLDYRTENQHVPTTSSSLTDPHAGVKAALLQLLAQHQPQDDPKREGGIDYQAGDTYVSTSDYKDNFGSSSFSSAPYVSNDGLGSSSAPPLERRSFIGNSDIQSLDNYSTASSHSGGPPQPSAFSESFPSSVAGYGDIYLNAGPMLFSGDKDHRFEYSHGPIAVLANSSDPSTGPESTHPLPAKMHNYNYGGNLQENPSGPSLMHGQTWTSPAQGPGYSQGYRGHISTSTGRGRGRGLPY
T10 sequence (O75909 whole entry partner, the tested form may be a part): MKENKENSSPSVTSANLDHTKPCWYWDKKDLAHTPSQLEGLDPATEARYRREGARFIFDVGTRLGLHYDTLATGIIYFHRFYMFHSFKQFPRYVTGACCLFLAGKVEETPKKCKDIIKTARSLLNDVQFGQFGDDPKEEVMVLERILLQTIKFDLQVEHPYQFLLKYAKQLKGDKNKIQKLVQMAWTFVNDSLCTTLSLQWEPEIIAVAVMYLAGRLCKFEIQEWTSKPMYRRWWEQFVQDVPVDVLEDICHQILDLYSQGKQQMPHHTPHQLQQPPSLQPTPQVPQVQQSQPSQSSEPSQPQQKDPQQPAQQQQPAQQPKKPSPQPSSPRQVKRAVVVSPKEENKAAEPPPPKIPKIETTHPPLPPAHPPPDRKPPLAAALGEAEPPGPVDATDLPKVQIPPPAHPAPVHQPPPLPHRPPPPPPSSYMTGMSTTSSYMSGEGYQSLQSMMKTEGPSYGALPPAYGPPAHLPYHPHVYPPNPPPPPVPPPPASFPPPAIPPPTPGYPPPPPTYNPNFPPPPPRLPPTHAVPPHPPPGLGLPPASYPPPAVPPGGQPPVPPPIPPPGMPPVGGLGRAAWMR
In words: NanoBRET. The format is cell-based. As to conditions: read-out: NanoBRET EC50 ± SEM CDK13/Cyclin K. The procedure: as §1

T7 sequence (O94921 whole entry, the tested form may be a part): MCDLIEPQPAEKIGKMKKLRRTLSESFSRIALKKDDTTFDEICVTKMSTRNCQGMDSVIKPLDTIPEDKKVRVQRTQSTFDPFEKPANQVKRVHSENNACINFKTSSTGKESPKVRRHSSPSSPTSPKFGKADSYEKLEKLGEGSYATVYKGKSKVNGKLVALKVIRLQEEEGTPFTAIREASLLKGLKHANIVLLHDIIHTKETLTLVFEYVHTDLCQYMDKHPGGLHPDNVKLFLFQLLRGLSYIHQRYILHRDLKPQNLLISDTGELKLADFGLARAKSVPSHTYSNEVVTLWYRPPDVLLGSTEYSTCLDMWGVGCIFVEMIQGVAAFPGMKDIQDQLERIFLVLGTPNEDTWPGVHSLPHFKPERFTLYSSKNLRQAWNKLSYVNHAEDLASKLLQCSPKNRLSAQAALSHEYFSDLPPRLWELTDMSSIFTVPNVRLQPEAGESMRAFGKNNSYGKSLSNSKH
T7 sequence (Q8ND76 2-341 partner limits assumed): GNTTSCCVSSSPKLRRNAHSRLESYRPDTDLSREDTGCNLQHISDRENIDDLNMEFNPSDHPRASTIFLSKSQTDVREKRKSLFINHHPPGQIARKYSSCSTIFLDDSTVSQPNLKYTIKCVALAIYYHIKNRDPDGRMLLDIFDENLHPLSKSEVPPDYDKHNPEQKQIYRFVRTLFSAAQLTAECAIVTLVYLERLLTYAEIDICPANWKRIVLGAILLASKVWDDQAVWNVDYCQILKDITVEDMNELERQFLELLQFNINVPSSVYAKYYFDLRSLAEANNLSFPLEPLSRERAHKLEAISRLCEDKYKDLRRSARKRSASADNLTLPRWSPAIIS
CDK20/Cyclin H, sequence (Q8IZL9 whole entry): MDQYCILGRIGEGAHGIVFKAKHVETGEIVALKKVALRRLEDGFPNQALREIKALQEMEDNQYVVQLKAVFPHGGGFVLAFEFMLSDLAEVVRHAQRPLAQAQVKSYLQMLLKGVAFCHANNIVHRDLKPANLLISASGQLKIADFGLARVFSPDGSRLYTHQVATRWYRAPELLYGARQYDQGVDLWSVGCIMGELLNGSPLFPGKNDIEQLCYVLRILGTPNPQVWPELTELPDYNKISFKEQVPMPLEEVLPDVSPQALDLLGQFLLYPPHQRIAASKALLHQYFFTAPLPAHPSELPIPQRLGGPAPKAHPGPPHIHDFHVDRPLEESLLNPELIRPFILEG
CDK20/Cyclin H, sequence (P51946 whole entry partner): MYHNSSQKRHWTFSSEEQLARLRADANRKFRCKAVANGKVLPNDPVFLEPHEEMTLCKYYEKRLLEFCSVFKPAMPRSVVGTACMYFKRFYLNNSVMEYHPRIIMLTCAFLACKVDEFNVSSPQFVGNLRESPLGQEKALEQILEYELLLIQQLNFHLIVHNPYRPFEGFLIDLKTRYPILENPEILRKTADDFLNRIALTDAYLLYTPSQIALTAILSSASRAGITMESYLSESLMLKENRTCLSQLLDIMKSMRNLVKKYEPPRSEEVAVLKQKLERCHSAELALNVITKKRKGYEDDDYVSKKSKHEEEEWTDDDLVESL
Procedure for TTK: Recombinant protein kinase domains with a concentration of 2 μM were mixed with a 10 μM compound solution in DMSO, 20 mM HEPES, pH 7.5, and 500 mM NaCl. SYPRO Orange (5000×, Invitrogen) was added as a fluorescence probe (1 µl per mL). Subsequently, temperature-dependent protein unfolding profiles were measured, using the QuantStudio™ 5 realtime PCR machine (Thermo Fisher, Waltham, MA, USA). […] The temperature was raised with a step rate of 3 °C per minute. Data points were analyzed with the internal software (Thermal Shift SoftwareTM Version 1.4, Thermo Fisher) using the Boltzmann equation to determine the inflection point of the transition curve [56]. Differences in melting temperature are given as ΔTm values in °C. Measurements were performed in duplicates.

With `CC(C)(C)OC(=O)Nc1ccc(CNc2nccc(Nc3cc(C(=O)OC(C)(C)C)[nH]n3)n2)cc1` [43d, tert-butyl 3-((2-((4-((tert-butoxycarbonyl)amino)benzyl)amino)pyrimidin-4-yl)amino)-1H-pyrazole-5-carboxylate], the “ΔTm TTK” value at TTK is -0.2 °C. Besides, the EC50 on CDK3/Cyclin E1 turned out to be 2750 ± 959 nM; at CDK7 it was 1460 ± 552 nM; on CDK20/Cyclin H it was 1710 ± 222 nM; at CDK2/Cyclin A2, 1520 ± 449 nM; at CDK2/Cyclin A1 it was 1670 ± 420 nM; on CDK9/Cyclin K, 993 nM. Also, the EC50 was 72.1 nM at CDK14/Cyclin Y, 582 nM on CDK1/Cyclin E1, 3070 ± 1860 nM on CDK2/Cyclin D1 and 651 nM at CDK10/Cyclin L2.
As for `CC(C)OC(=O)c1cc(Nc2ccnc(NCc3ccc(NC(=O)OC(C)(C)C)cc3)n2)n[nH]1` [42d, isopropyl 3-((2-((4-((tert-butoxycarbonyl)amino)benzyl)amino)pyrimidin-4-yl)amino)-1H-pyrazole-5-carboxylate], the “ΔTm TTK” value at TTK is -0.1 °C. In addition, the EC50 on CDK3/Cyclin E1 stood at 1270 ± 522 nM; on CDK7, 1140 ± 658 nM; at CDK20/Cyclin H, 745 ± 350 nM; on CDK13/Cyclin K, 3830 ± 2280 nM; at CDK2/Cyclin A2 it was 2840 ± 1350 nM; on CDK2/Cyclin A1, 32500 ± 13900 nM. For the same molecule, the EC50 on CDK9/Cyclin K came out at 575 ± 157 nM; at CDK14/Cyclin Y, 88.2 ± 48.8 nM; at CDK1/Cyclin E1 it was 200 ± 42.8 nM; on CDK2/Cyclin D1, 4860 ± 2390 nM; at CDK10/Cyclin L2, 333.6 ± 0.2 nM.
Take `COC(=O)c1cc(Nc2ccnc(NCCOCCNC(=O)OC(C)(C)C)n2)[nH]n1` [21d, methyl 5-((2-((2-(2-((tert-butoxycarbonyl)amino)ethoxy)ethyl)amino)pyrimidin-4-yl)amino)-1H-pyrazole-3-carboxylate]: on TTK, the “ΔTm TTK” value was 1.6 °C.
Turning to `N#CCc1ccc(Nc2nccc(Nc3cc(C4CC4)[nH]n3)n2)cc1` [compound 1, reference compound], the “ΔTm TTK” value on TTK was determined as 8.8 °C. In addition, the EC50 at CDK3/Cyclin E1 was determined as 11.8 ± 4.5 nM; at CDK7, 103 ± 43.2 nM; at CDK20/Cyclin H it was 2660 ± 568 nM; at CDK13/Cyclin K, 66.1 ± 19.9 nM; on CDK2/Cyclin A2, 28.1 ± 7.5 nM; at CDK2/Cyclin A1, 60 ± 41.1 nM. The EC50 on CDK9/Cyclin K amounted to 17.4 ± 5.4 nM; at CDK14/Cyclin Y, 33.7 ± 8.2 nM; at CDK1/Cyclin E1, 5.2 ± 2.5 nM; at CDK2/Cyclin D1 it was 38.6 ± 17.3 nM; at CDK10/Cyclin L2, 325 ± 36.4 nM.
For `COC(=O)c1cc(Nc2ccnc(NCc3ccc(NC(=O)OC(C)(C)C)cc3)n2)[nH]n1` [21i, methyl 5-((2-((4-((tert-butoxycarbonyl)amino)benzyl)amino)pyrimidin-4-yl)amino)-1H-pyrazole-3-carboxylate], the “ΔTm TTK” value at TTK amounted to 0.0 °C. For the same molecule, the EC50 at CDK3/Cyclin E1 amounted to 12400 ± 4610 nM; on CDK7, 10400 ± 4770 nM; at CDK20/Cyclin H, 8420 ± 629 nM; on CDK13/Cyclin K, 24200 ± 5880 nM; at CDK2/Cyclin A2, 11700 ± 2330 nM; at CDK2/Cyclin A1 it was 36700 ± 3320 nM. Moreover, the EC50 on CDK9/Cyclin K came out at 7000 ± 2120 nM; on CDK14/Cyclin Y, 1370 ± 374 nM; on CDK1/Cyclin E1, 6420 ± 3460 nM; at CDK2/Cyclin D1, 33500 ± 1520 nM; on CDK10/Cyclin L2 it was 7930 ± 2930 nM.

(Values after paper PMC9736855, “Discovery of 3-Amino-1H-pyrazole-Based Kinase Inhibitors to Illuminate the Understudied PCTAIRE Family” (International Journal of Molecular Sciences, 2022).)
